Test results as given in patent US20260274892A1, “MACROCYCLIC BROAD SPECTRUM ANTIBIOTICS” (RQx Pharmaceuticals, Inc., priority 2017, published 2026).

Key:
[1] = system: Methicillin Resistant Staphylococcus aureus strain USA 200; experiment: Minimum inhibitory concentration (MIC), CLSI broth micro-dilution, S. aureus; assay type: cell-based; details: Table 6, MRSA USA 200, cation adjusted Mueller Hinton Broth + 0.002% Tween-80, 35° C., 22 hours
How it was run: (§1)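 Colonies grown 20 h at 35° C on Trypticase Soy agar (MRSA) or Luria agar (E. coli) were suspended in cation-adjusted Mueller Hinton broth with 0.002% Tween-80. Suspensions were added at OD600 0.0005 to 10-point twofold compound dilutions, then incubated 22 h at 35° C.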

[2] = system: Escherichia coli ATCC 25922; experiment: Minimum inhibitory concentration (MIC), CLSI broth micro-dilution, E. coli; assay type: cell-based; details: Table 6, cation adjusted Mueller Hinton Broth + 0.002% Tween-80, 35° C.
How it was run: as §1

[3] = Staphylococcus aureus, MRSA / USA200
[4] = Escherichia coli, ATCC25922, 22 h

SMILES	MIC [1] [µM]	MIC ([2]; 22 hours) [µM]	MIC [1, 3] [µM]	MIC [2, 4] [µM]
CCCCCCCCCCCCCC(=O)N1C[C@H](N)CC1C(=O)N(C)[C@@H]1C(=O)N[C@@H](C)C(=O)N[C@H](C(=O)NCC#N)Cc2ccc(OCCN)c(c2)-c2cc1ccc2OCCN (mixture of isomers) [Compound 483, rac-(8S,11S,14S)-3,18-bis(2-aminoethoxy)-14-[(4-amino-1-tetradecanoyl-pyrrolidine-2-carbonyl)-methyl-amino]-N-(cyanomethyl)-11-methyl-10,13-dioxo-9,12-diazatricyclo[13.3.1.12,6]icosa-1(18),2(20),3,5,15(19),16-hexaene-8-carboxamide]	0.036	0.29		
Cc1nc(-c2ccc(C(C)(C)C)cc2)nc(C)c1C(=O)N[C@@H](COCCN)C(=O)N(C)[C@@H]1C(=O)N[C@@H](C)C(=O)N[C@H](C(=O)NCC#N)Cc2ccc(OCCN)c(c2)-c2cc1ccc2OCCN (racemic) [Compound 495, rac-(8S,11S,14S)-3,18-bis(2-aminoethoxy)-N-(cyanomethyl)-11-methyl-14-[methyl-[rac-(2S)-3-(2-aminoethoxy)-2-[[2-(4-tert-butylphenyl)-4,6-dimethyl-pyrimidine-5-carbonyl]amino]propanoyl]amino]-10,13-dioxo-9,12-diazatricyclo[13.3.1.12,6]icosa-1(18),2(20),3,5,15(19),16-hexaene-8-carboxamide]			0.031	1
Cc1nc(-c2ccc(OC3CCCCC3)cc2)nc(C)c1C(=O)N[C@@H](CCC(N)=O)C(=O)N(C)[C@@H]1C(=O)N[C@@H](C)C(=O)N[C@H](C(=O)NCC#N)Cc2ccc(OCCN)c(c2)-c2cc1ccc2OCCN (racemic) [Compound 505, rac-(2S)-2-[[2-[4-(cyclohexoxy)phenyl]-4,6-dimethyl-pyrimidine-5-carbonyl]amino]-N-methyl-N-[rac-(7S,10S,13S)-3,18-bis(2-aminoethoxy)-13-(cyanomethylcarbamoyl)-10-methyl-8,11-dioxo-9,12-diazatricyclo[13.3.1.12,6]icosa-1(19),2,4,6(20),15,17-hexaen-7-yl]pentanediamide]			0.094	1.5
CCCCCc1ccc(-c2nc(C)c(C(=O)N[C@@H](CCN)C(=O)N(C)[C@@H]3C(=O)N[C@@H](C)C(=O)N[C@H](C(=O)NCC#N)Cc4ccc(OCCN)c(c4)-c4cc3ccc4OCCN)c(C)n2)cc1 (racemic) [Compound 513, rac-(8S,11S,14S)-3,18-bis(2-aminoethoxy)-N-(cyanomethyl)-11-methyl-14-[methyl-[rac-(2S)-4-amino-2-[[4,6-dimethyl-2-(4-pentylphenyl)pyrimidine-5-carbonyl]amino]butanoyl]amino]-10,13-dioxo-9,12-diazatricyclo[13.3.1.12,6]icosa-1(18),2(20),3,5,15(19),16-hexaene-8-carboxamide]			0.0061	0.097
CCc1ccc(-c2nc(C)c(C(=O)N[C@@H](CCN)C(=O)N(C)[C@@H]3C(=O)N[C@@H](C)C(=O)N[C@H](C(=O)NCC#N)Cc4ccc(O)c(c4)-c4cc3ccc4OCCN)c(C)n2)cc1 (racemic) [Compound 516, rac-(8S,11S,14S)-18-(2-aminoethoxy)-N-(cyanomethyl)-3-hydroxy-11-methyl-14-[methyl-[rac-(2S)-4-amino-2-[[2-(4-ethylphenyl)-4,6-dimethyl-pyrimidine-5-carbonyl]amino]butanoyl]amino]-10,13-dioxo-9,12-diazatricyclo[13.3.1.12,6]icosa-1(18),2(20),3,5,15(19),16-hexaene-8-carboxamide]			0.19	2
CC(=O)NCCOc1ccc2cc1-c1cc(ccc1OCCN)[C@H](N(C)C(=O)[C@H](CCN)NC(=O)c1c(C)nc(-c3ccc(C(C)(C)C)cc3)nc1C)C(=O)N[C@@H](C)C(=O)N[C@H](C(=O)NCC#N)C2 (racemic) [Compound 517, rac-(8S,11S,14S)-3-(2-acetamidoethoxy)-18-(2-aminoethoxy)-N-(cyanomethyl)-11-methyl-14-[methyl-[rac-(2S)-4-amino-2-[[2-(4-tert-butylphenyl)-4,6-dimethyl-pyrimidine-5-carbonyl]amino]butanoyl]amino]-10,13-dioxo-9,12-diazatricyclo[13.3.1.12,6]icosa-1(18),2(20),3,5,15(19),16-hexaene-8-carboxamide]			0.19	0.75
CCCCCOc1ccc(-c2nc(C)c(C(=O)N[C@@H](CCN)C(=O)N(C)[C@@H]3C(=O)N[C@@H](C)C(=O)N[C@H](C(=O)NCC#N)Cc4ccc(O)c(c4)-c4cc3ccc4OCCN)c(C)n2)cc1 (racemic) [Compound 518, rac-(8S,11S,14S)-18-(2-aminoethoxy)-N-(cyanomethyl)-3-hydroxy-11-methyl-14-[methyl-[rac-(2S)-4-amino-2-[[4,6-dimethyl-2-(4-pentoxyphenyl)pyrimidine-5-carbonyl]amino]butanoyl]amino]-10,13-dioxo-9,12-diazatricyclo[13.3.1.12,6]icosa-1(18),2(20),3,5,15(19),16-hexaene-8-carboxamide]			0.028	0.16
CCCCCc1ccc(-c2nc(C)c(C(=O)N[C@@H](CCN)C(=O)N(C)[C@@H]3C(=O)N[C@@H](C)C(=O)N[C@H](C(=O)NCC#N)Cc4ccc(O)c(c4)-c4cc3ccc4OCCN)c(C)n2)cc1 (racemic) [Compound 521, rac-(8S,11S,14S)-18-(2-aminoethoxy)-N-(cyanomethyl)-3-hydroxy-11-methyl-14-[methyl-[rac-(2S)-4-amino-2-[[4,6-dimethyl-2-(4-pentylphenyl)pyrimidine-5-carbonyl]amino]butanoyl]amino]-10,13-dioxo-9,12-diazatricyclo[13.3.1.12,6]icosa-1(18),2(20),3,5,15(19),16-hexaene-8-carboxamide]			0.047	0.2
Cc1nc(-c2ccc(C(C)(C)C)cc2)ncc1C(=O)N[C@@H](CCN)C(=O)N(C)[C@@H]1C(=O)N[C@@H](C)C(=O)N[C@H](C(=O)NCC#N)Cc2ccc(O)c(c2)-c2cc1ccc2OCCN (racemic) [Compound 523, rac-(8S,11S,14S)-18-(2-aminoethoxy)-N-(cyanomethyl)-3-hydroxy-11-methyl-14-[methyl-[rac-(2S)-4-amino-2-[[2-(4-tert-butylphenyl)-4-methyl-pyrimidine-5-carbonyl]amino]butanoyl]amino]-10,13-dioxo-9,12-diazatricyclo[13.3.1.12,6]icosa-1(18),2(20),3,5,15(19),16-hexaene-8-carboxamide]			0.044	0.28
Cc1nc(-c2ccc(O)cc2)ncc1C(=O)N[C@@H](CCN)C(=O)N(C)[C@@H]1C(=O)N[C@@H](C)C(=O)N[C@H](C(=O)NCC#N)Cc2ccc(OCCN)c(c2)-c2cc1ccc2OCCN (racemic) [Compound 524, rac-(8S,11S,14S)-3,18-bis(2-aminoethoxy)-N-(cyanomethyl)-11-methyl-14-[methyl-[rac-(2S)-4-amino-2-[[2-(4-hydroxyphenyl)-4-methyl-pyrimidine-5-carbonyl]amino]butanoyl]amino]-10,13-dioxo-9,12-diazatricyclo[13.3.1.12,6]icosa-1(18),2(20),3,5,15(19),16-hexaene-8-carboxamide]			0.56	4.5
Cc1cc(-c2ccc(CC(C)C)cc2)ncc1C(=O)N[C@@H](CCN)C(=O)N(C)[C@@H]1C(=O)N[C@@H](C)C(=O)N[C@H](C(=O)NCC#N)Cc2ccc(O)c(c2)-c2cc1ccc2OCCN (racemic) [Compound 525, rac-(8S,11S,14S)-18-(2-aminoethoxy)-N-(cyanomethyl)-3-hydroxy-11-methyl-14-[methyl-[rac-(2S)-4-amino-2-[[6-(4-isobutylphenyl)-4-methyl-pyridine-3-carbonyl]amino]butanoyl]amino]-10,13-dioxo-9,12-diazatricyclo[13.3.1.12,6]icosa-1(18),2(20),3,5,15(19),16-hexaene-8-carboxamide]			0.053	0.56
Cc1nc(-c2ccc(C(C)(C)C)cc2)ccc1C(=O)N[C@@H](CCN)C(=O)N(C)[C@@H]1C(=O)N[C@@H](C)C(=O)N[C@H](C(=O)NCC#N)Cc2ccc(O)c(c2)-c2cc1ccc2OCCN (racemic) [Compound 526, rac-(8S,11S,14S)-18-(2-aminoethoxy)-N-(cyanomethyl)-3-hydroxy-11-methyl-14-[methyl-[rac-(2S)-4-amino-2-[[6-(4-tert-butylphenyl)-2-methyl-pyridine-3-carbonyl]amino]butanoyl]amino]-10,13-dioxo-9,12-diazatricyclo[13.3.1.12,6]icosa-1(18),2(20),3,5,15(19),16-hexaene-8-carboxamide]			0.047	0.33
Cc1cc(-c2ccc(C(C)(C)C)cc2)nc(C)c1C(=O)N[C@@H](CCN)C(=O)N(C)[C@@H]1C(=O)N[C@@H](C)C(=O)N[C@H](C(=O)NCC#N)Cc2ccc(O)c(c2)-c2cc1ccc2OCCN (racemic) [Compound 530, rac-(8S,11S,14S)-18-(2-aminoethoxy)-N-(cyanomethyl)-3-hydroxy-11-methyl-14-[methyl-[rac-(2S)-4-amino-2-[[6-(4-tert-butylphenyl)-2,4-dimethyl-pyridine-3-carbonyl]amino]butanoyl]amino]-10,13-dioxo-9,12-diazatricyclo[13.3.1.12,6]icosa-1(18),2(20),3,5,15(19),16-hexaene-8-carboxamide]			0.063	0.35
